According to patent US11319289B2, “5-hydroxy pyridine-based compound for use as P2X1 and P2X3 receptor antagonist and pharmaceutical composition comprising same” (GWANGJU INSTITUTE OF SCIENCE AND TECHNOLOGY, priority 2017, dated 2022):

Key:
[1] = tested on: SNL rats (mechanical allodynia); assay: Antiallodynic effect (von Frey) in spinal nerve ligation (SNL) rats; format: in vivo, rat; conditions: for ED50: Rattus norvegicus, antiallodynic effect, intravenous administration
Description: (§1) 3-1. Evaluation of In Vivo Efficacy
(§2) The antiallodynic effects (mechanical allodynia) were evaluated using rats according to a previously reported protocol. In order to evaluate the withdrawal threshold, rats (naive, SNL and CIPN) were placed on a plastic mesh floor of individual plastic cages. The rats were allowed to acclimate to the environment for 30 minutes and examined after intrathecal or intravenous administration to the caudal vein. The control group received the same volume of vehicle (intrathecal administration of saline or DMSO, intravenous administration of DMSO:PEG:PBS=1:6:3 v/v %) as the experimental groups. Evaluation of the mechanical withdrawal threshold was measured in responses to the application of calibrated von Frey filaments (Stoelting, Wood Dale, Ill., USA) to the hind paw of the rats through the holes on the mesh floor underneath the cage using the ‘up and down method’. A series of eight von Frey filaments (0.4, 0.7, 1.2, 2.0, 3.6, 5.5, 8.5, and 15 g) was applied perpendicular to the sole of the hind paw for 5 seconds while the head was bent. Active withdrawal or flinching of the paw was considered as a positive reaction. The absence of response in the rats, when a pressure was applied to 15 g von Frey filament, was used as a cut-off value. Only rats with definite allodynia (i.e., mechanical withdrawal threshold: less than 4 g after SNL or less than 5 g after CIPN) were tested. The rats after termination of the experiments were euthanized through an overdose of sevoflurane. The withdrawal threshold data for the von Frey filament test was calculated as % MPE (maximum possible effect) based on the following Calculation Equation: % MPE=[(Post-drug threshold−Post-injured baseline threshold)/(Cutoff threshold−post-injured baseline threshold)×100]. Dose-response data were analyzed using Scheffe's post hoc test and one-way analysis of variance (ANOVA).

[2] = tested on: CIPN rats (mechanical allodynia); assay: Antiallodynic effect (von Frey) in chemotherapy-induced peripheral neuropathy (CIPN) rats; format: in vivo; conditions: Rattus norvegicus, intravenous administration
Description: as §1, §2

[3] = tested on: neuropathic pain (NeP) animal models; assay: Efficacy in neuropathic pain (NeP) animal models, model not specified; format: in vivo, rat; conditions: Rattus norvegicus, read-out: ED50 of clinical drugs for NeP
Description: as §1, §2

Structure (SMILES) | ED50 [1] [mg/kg] | ED50 [2] [mg/kg] | ED50 [3] [mg/kg] | antiallodynic efficacy, MPE % ([1]; 1 μg, intrathecal administration) [%]
CCCc1nc(Cc2cccc(Oc3ccccc3)c2)c(C)c(C(=O)OCCN2C(=O)c3ccccc3C2=O)c1O [Compound 46c, 2-phthalimidoethyl 3-hydroxy-5-methyl-6-(3-phenoxybenzyl)-2-propylisonicotinate] | 2.97 | 3.28 |  | 
COc1cccc(C2(O)CCCCC2CN(C)C)c1 (stereo not shown) [tramadol, reference compound] |  |  | 4.67 | 
CCCc1nc(Cc2cccc(Oc3ccccc3)c2)c(C)c(C(=O)OC2CCCC2)c1O [Compound 46h, Cyclopentyl 3-hydroxy-5-methyl-6-(3-phenoxybenzyl)-2-propylisonicotinate] | 3.64 | 3.91 |  | 
CCCc1nc(Cc2cccc(Oc3ccccc3)c2)c(C)c(C(=O)OC(C)C)c1O [Compound 46f, Isopropyl 3-hydroxy-5-methyl-6-(3-phenoxybenzyl)-2-propylisonicotinate] | 2.78 | 3.08 |  | 
CCCCCCCCOC(=O)c1c(C)c(Cc2cccc(Oc3ccccc3)c2)nc(CCC)c1O [Compound 46b, Octyl 3-hydroxy-5-methyl-6-(3-phenoxybenzyl)-2-propylisonicotinate] | 2.47 | 2.93 |  | 
CCCc1nc(Cc2cccc(Oc3ccccc3)c2)c(C)c(C(=O)OCC)c1O [Compound 48, Ethyl 3-hydroxy-5-methyl-6-(3-phenoxybenzyl)-2-propylisonicotinate] | 3.52 | 3.87 |  | 
CCCc1nc(Cc2cccc(Oc3ccccc3)c2)c(C)c(C(=O)OC(CC)CC)c1O [Compound 46g, Pentan-3-yl 3-hydroxy-5-methyl-6-(3-phenoxybenzyl)-2-propylisonicotinate] | 3.42 | 3.66 |  | 
CCCc1nc(Cc2cccc(Oc3ccccc3)c2)c(C)c(C(=O)OC2CCOC2)c1O (stereo not shown) [Compound 46i, Tetrahydrofuran-3-yl 3-hydroxy-5-methyl-6-(3-phenoxybenzyl)-2-propylisonicotinate] | 2.87 | 3.56 |  | 
CCCc1nc(Cc2cccc(Oc3ccccc3)c2)c(C)c(C(=O)OC2CCNCC2)c1O [Compound 47, Piperidin-4-yl 3-hydroxy-5-methyl-6-(3-phenoxybenzyl)-2-propylisonicotinate] | 3.35 | 3.77 |  | 
CCCc1nc(Cc2cccc(Oc3ccccc3)c2)c(C)c(C(=O)OCCc2ccccc2)c1O [Compound 46a, Phenethyl 3-hydroxy-5-methyl-6-(3-phenoxybenzyl)-2-propylisonicotinate] | 2.31 | 3.02 |  | 
CC(C)C[C@H](CN)CC(=O)O [pregabalin, reference compound] |  |  | 4.21 | 65±9
CCCc1nc(Cc2cccc(Oc3ccccc3)c2)c(C)c(C(=O)OCCCCN2C(=O)c3ccccc3C2=O)c1O [Compound 46d, 4-phthalimidobutyl 3-hydroxy-5-methyl-6-(3-phenoxybenzyl)-2-propylisonicotinate] | 3.12 | 3.94 |  | 
CCCc1nc(Cc2cccc(Oc3ccccc3)c2)c(C)c(C(=O)OCCN2CCCC2)c1O [Compound 46e, 2-(pyrrolidin-1-yl)ethyl 3-hydroxy-5-methyl-6-(3-phenoxybenzyl)-2-propylisonicotinate] | 3.02 | 3.55 |  | 
